In series [1] the target is T1, A disintegrin and metalloproteinase with thrombospondin motifs 5 (Homo sapiens, UniProt Q9UNA0).
T1 sequence (Q9UNA0 whole entry): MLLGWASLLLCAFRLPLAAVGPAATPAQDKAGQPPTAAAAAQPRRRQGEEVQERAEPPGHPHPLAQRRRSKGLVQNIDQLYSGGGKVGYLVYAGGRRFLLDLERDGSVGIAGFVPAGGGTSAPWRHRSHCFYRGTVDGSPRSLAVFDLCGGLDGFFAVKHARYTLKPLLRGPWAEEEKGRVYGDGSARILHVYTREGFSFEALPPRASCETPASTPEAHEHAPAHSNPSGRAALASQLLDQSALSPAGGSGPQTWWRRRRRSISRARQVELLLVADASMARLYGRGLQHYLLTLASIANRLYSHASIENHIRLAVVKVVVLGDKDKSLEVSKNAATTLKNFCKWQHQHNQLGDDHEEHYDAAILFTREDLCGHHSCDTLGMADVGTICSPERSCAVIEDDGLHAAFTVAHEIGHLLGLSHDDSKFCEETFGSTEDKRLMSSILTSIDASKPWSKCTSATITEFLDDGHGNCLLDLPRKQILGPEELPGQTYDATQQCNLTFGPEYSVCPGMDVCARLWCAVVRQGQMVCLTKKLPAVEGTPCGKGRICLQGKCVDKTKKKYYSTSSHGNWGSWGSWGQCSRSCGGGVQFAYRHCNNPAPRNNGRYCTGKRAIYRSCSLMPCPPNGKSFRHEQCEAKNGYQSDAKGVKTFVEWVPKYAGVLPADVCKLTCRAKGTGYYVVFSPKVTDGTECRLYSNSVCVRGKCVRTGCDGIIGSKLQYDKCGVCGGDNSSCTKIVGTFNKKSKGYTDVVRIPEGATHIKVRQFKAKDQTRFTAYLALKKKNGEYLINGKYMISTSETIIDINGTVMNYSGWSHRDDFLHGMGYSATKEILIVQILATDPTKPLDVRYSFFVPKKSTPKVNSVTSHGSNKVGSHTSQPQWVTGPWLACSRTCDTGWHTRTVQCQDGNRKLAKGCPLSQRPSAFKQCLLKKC
The series can be described thus: Inhibition of ADAMTS5.

Series [2] concerns the target T2, A disintegrin and metalloproteinase with thrombospondin motifs 5 (Homo sapiens) (UniProt Q9UNA0).
T2 sequence (whole entry): T1 sequence (Q9UNA0 whole entry)
The series can be described thus: Inhibition of ADAMTS5 at 0.3 uM.

Series [3] addresses T2, A disintegrin and metalloproteinase with thrombospondin motifs 5 (Homo sapiens). Kind of series: Inhibition of ADAMTS5 at 1 uM.
The nature of series [4]: Oral bioavailability in rat. Type of series: ADME, organism-based. The conditions noted are these: in vivo.
Series [5] can be described thus: Half life in rat. As to conditions: in vivo. It counts as ADME, organism-based.
Series [6] deals with T3, Interstitial collagenase (Homo sapiens, UniProt P03956).
T3 sequence (P03956 whole entry): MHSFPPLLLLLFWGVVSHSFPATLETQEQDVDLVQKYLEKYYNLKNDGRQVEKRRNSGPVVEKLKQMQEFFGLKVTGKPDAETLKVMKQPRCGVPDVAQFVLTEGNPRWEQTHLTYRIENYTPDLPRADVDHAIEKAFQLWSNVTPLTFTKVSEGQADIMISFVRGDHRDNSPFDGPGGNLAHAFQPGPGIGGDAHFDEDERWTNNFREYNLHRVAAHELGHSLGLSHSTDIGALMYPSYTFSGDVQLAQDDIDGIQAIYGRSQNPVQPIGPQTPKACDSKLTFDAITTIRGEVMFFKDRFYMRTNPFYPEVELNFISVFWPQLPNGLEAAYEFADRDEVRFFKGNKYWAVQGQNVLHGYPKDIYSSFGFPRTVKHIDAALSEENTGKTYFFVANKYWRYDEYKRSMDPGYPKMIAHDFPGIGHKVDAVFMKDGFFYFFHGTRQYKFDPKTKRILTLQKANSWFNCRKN
Kind of series: Inhibition of MMP-1.

For series [7], the target named is Disintegrin and metalloproteinase domain-containing protein 17 (Homo sapiens, UniProt P78536). Kind of series: Inhibition of TACE.
Chain of Disintegrin and metalloproteinase domain-containing protein 17 (P78536 whole entry, the tested form may be a part): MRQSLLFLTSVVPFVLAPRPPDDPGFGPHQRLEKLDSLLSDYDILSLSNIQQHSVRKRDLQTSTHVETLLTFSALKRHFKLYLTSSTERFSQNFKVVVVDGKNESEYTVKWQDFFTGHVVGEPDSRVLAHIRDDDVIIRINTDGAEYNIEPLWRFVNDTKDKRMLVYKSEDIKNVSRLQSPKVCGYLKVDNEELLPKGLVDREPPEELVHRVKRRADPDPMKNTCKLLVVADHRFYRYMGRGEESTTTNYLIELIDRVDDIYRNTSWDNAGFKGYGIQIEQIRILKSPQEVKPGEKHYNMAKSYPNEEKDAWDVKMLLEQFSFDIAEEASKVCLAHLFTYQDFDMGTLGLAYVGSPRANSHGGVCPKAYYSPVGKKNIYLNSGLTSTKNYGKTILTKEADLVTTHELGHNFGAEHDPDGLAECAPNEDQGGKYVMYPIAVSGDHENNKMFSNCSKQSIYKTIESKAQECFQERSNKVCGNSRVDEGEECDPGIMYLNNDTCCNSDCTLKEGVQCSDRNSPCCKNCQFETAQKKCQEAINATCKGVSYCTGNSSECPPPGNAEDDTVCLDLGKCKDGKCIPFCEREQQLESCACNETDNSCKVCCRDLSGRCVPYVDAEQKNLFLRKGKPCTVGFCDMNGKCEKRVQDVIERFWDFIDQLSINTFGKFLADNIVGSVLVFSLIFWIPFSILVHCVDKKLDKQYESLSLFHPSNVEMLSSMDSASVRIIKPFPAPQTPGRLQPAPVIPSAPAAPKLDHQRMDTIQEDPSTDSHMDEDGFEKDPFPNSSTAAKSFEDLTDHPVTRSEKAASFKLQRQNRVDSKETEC

As a reminder, the IC50 is the concentration that inhibits the measured activity by half. High values mean weaker potency in that assay, low ones greater potency in that assay. Molecule `C[C@]1(c2ccccc2)C[C@@]1(NS(=O)(=O)c1ccc(-n2cc(Cl)cn2)s1)C(=O)O` returned a half-maximal inhibitory concentration (IC50) in series [1] of 32 nM. What is called inhibition is the relative decrease from the control value, in per cent. Regarding `COC(=O)c1cn(CCN([C@@]2(C(=O)O)C[C@@H]2c2ccccc2)S(=O)(=O)c2ccc(-c3ccc(Cl)cc3)cc2)cn1`, the inhibition in series [2] is 18%. Consider `O=C(O)[C@@]1(NS(=O)(=O)c2ccc(-c3ccc(Cl)cc3)cc2)C[C@H]1c1ccccc1`, for which the IC50 in series [1] stood at 210 nM.

In the case of `C[C@H]1C[C@@]1(NS(=O)(=O)c1ccc(-n2cc(Cl)cn2)s1)C(=O)O` (racemic), the inhibition in series [3] amounted to 3.5%. In turn, `CC(C)[C@H]1C[C@@]1(NS(=O)(=O)c1ccc(-n2cc(Cl)cn2)s1)C(=O)O` (racemic) had a half-inhibitory concentration (IC50) in series [1] of 770 nM. `CC1(C)C[C@@]1(NS(=O)(=O)c1ccc(-n2cc(Cl)cn2)s1)C(=O)O` (racemic): the inhibition in series [3] was 19.6%. With `O=C(O)[C@]1(NS(=O)(=O)c2ccc(-n3cc(Cl)cn3)s2)C[C@@H]1C1CCCCC1` (racemic), the half-maximal inhibitory concentration (IC50) in series [1] is 360 nM. As usually defined, the bioavailability is the share of a dose that reaches the circulation, judged against a reference dose that is usually intravenous. A word on the half-life: it is the time in which the quantity being followed falls by half. Lower therefore signals fast loss. In series [4], `C[C@@H]1[C@H](c2ccccc2)[C@]1(NS(=O)(=O)c1ccc(-n2cc(Cl)cn2)s1)C(=O)O` (racemic) came in with a bioavailability of 81%. In series [5], the half-life was 4.5 h. Moreover, the IC50 in series [6] came out at 180 nM; in series [1], 7.4 nM; in series [7], 4000 nM. In turn, `O=C(O)[C@]1(NS(=O)(=O)c2ccc(-c3ccc(Cl)cc3)s2)C[C@@H]1c1ccccc1` returned a half-maximal inhibitory concentration (IC50) in series [1] of 60 nM. Molecule `O=C(O)[C@]1(NS(=O)(=O)c2ccc(-c3cccc(Cl)c3)s2)C[C@@H]1c1ccccc1` showed a half-inhibitory concentration (IC50) in series [1] of 94 nM.

As to `C[C@@H]1[C@H](c2ccccc2)[C@]1(NS(=O)(=O)c1ccc(-c2ccc(Cl)cc2)s1)C(=O)O`, the IC50 in series [1] came to 21 nM. Still for that read-out and setting: with `C[C@H]1[C@H](c2ccccc2)[C@]1(NS(=O)(=O)c1ccc(-c2ccc(Cl)cc2)s1)C(=O)O` (racemic) the figure was 120 nM. In the case of `O=C(O)[C@]1(NS(=O)(=O)c2ccc(-c3ccccc3Cl)s2)C[C@@H]1c1ccccc1`, the inhibition in series [3] is 48%. In series [1], `O=C(O)[C@]1(NS(=O)(=O)c2ccc(-c3ccc(Cl)cn3)s2)C[C@@H]1c1ccccc1` returned an IC50 of 100 nM. For `O=C(O)[C@]1(NS(=O)(=O)c2ccc(-n3cc(Cl)cn3)s2)CC[C@@H]1c1ccccc1` (racemic), the inhibition in series [3] is -0.84%. On to `C[C@@H]1[C@H](C)[C@]1(NS(=O)(=O)c1ccc(-n2cc(Cl)cn2)s1)C(=O)O`, for which 800 nM corresponded to half-maximal inhibition in series [1] (IC50).

For the molecule `C[C@]1(c2ccccc2)C[C@@]1(NS(=O)(=O)c1ccc(-c2ccc(Cl)cc2)s1)C(=O)O`, the half-inhibitory concentration (IC50) in series [1] was found to be 10 nM. On the same count and under the same terms, with `O=C(O)[C@]1(NS(=O)(=O)c2ccc(-c3ccc(Cl)cc3)cc2)C[C@@H]1c1ccccc1` the figure was 84 nM; with `O=C(O)[C@]1(NS(=O)(=O)c2ccc(-n3cc(Cl)cn3)s2)C[C@@H]1c1ccccc1`, 80 nM.

As for `O=C(O)[C@]1(NS(=O)(=O)c2ccc(-n3cc(Cl)cn3)s2)C[C@@H]1Cc1ccccc1` (racemic), the inhibition in series [3] was 25%.

The values above are taken from ChEMBL document CHEMBL1154291, “Synthesis and SAR of 2-phenyl-1-sulfonylaminocyclopropane carboxylates as ADAMTS-5 (Aggrecanase-2) inhibitors” (Bioorg Med Chem Lett, 2009).
